Data on eight molecules can be found in ChEMBL document CHEMBL1177694, “Multivalent catanionic GalCer analogs derived from first generation dendrimeric phosphonic acids” (Bioorg Med Chem, 2010).

What is called IC50 is the concentration that gives 50% inhibition. One may read the CC50 as the concentration giving 50% cytotoxicity. Read a low CC50 as greater toxicity to the cells.

Series [1] deals with Human immunodeficiency virus 1. In words: Antiviral activity against HIV1 LAI infected in human CEM-SS cells assessed as inhibition of viral replication after 5 days by MTT assay. The format is functional, organism-based. Conditions: Human immunodeficiency virus 1, LAI, 120 h. On the technique in general: Formazan colour is commonly taken as a measure of viable cells.
Series [2] in a line: Cytotoxicity against human CEM-SS cells after 5 days by MTT assay. Format: cell-based.
The nature of series [3]: Therapeutic index, ratio of CC50 for human CEM-SS cells to IC50 for HIV1 LAI infected in human CEM-SS cells. Conditions: CEM-SS cells (uninfected and infected with HIV1 LAI), read-out: Ratio CC50/IC50. The format is cell-based.

Consider `CCCCCCCCCCC(C(=O)NCCc1ccc(OP(=S)(Oc2ccc(CCNC(=O)C(CCCCCCCCCC)P(=O)(O)O)cc2)N(C)/N=C/c2ccc(OP3(Oc4ccc(/C=N/N(C)P(=S)(Oc5ccc(CCNC(=O)C(CCCCCCCCCC)P(=O)(O)O)cc5)Oc5ccc(CCNC(=O)C(CCCCCCCCCC)P(=O)(O)O)cc5)cc4)=NP(Oc4ccc(/C=N/N(C)P(=S)(Oc5ccc(CCNC(=O)C(CCCCCCCCCC)P(=O)(O)O)cc5)Oc5ccc(CCNC(=O)C(CCCCCCCCCC)P(=O)(O)O)cc5)cc4)(Oc4ccc(/C=N/N(C)P(=S)(Oc5ccc(CCNC(=O)C(CCCCCCCCCC)P(=O)(O)O)cc5)Oc5ccc(CCNC(=O)C(CCCCCCCCCC)P(=O)(O)O)cc5)cc4)=NP(Oc4ccc(/C=N/N(C)P(=S)(Oc5ccc(CCNC(=O)C(CCCCCCCCCC)P(=O)(O)O)cc5)Oc5ccc(CCNC(=O)C(CCCCCCCCCC)P(=O)(O)O)cc5)cc4)(Oc4ccc(/C=N/N(C)P(=S)(Oc5ccc(CCNC(=O)C(CCCCCCCCCC)P(=O)(O)O)cc5)Oc5ccc(CCNC(=O)C(CCCCCCCCCC)P(=O)(O)O)cc5)cc4)=N3)cc2)cc1)P(=O)(O)O` (centres undefined), for which the 50% inhibitory concentration (IC50) in series [1] was found to be 16 µM. This molecule came in with a half-maximal cytotoxic concentration (CC50) at 120 h in series [2] greater than 100 µM. Further, the selectivity ratio in series [3] was greater than 6.

Regarding `CN(/N=C/c1ccc(OP2(Oc3ccc(/C=N/N(C)P(=S)(Oc4ccc(/C=C/P(=O)(O)O)cc4)Oc4ccc(/C=C/P(=O)(O)O)cc4)cc3)=NP(Oc3ccc(/C=N/N(C)P(=S)(Oc4ccc(/C=C/P(=O)(O)O)cc4)Oc4ccc(/C=C/P(=O)(O)O)cc4)cc3)(Oc3ccc(/C=N/N(C)P(=S)(Oc4ccc(/C=C/P(=O)(O)O)cc4)Oc4ccc(/C=C/P(=O)(O)O)cc4)cc3)=NP(Oc3ccc(/C=N/N(C)P(=S)(Oc4ccc(/C=C/P(=O)(O)O)cc4)Oc4ccc(/C=C/P(=O)(O)O)cc4)cc3)(Oc3ccc(/C=N/N(C)P(=S)(Oc4ccc(/C=C/P(=O)(O)O)cc4)Oc4ccc(/C=C/P(=O)(O)O)cc4)cc3)=N2)cc1)P(=S)(Oc1ccc(/C=C/P(=O)(O)O)cc1)Oc1ccc(/C=C/P(=O)(O)O)cc1`, the IC50 in series [1] stood at 0.65 µM. In series [2], the half-maximal cytotoxic concentration (CC50) at 120 h is greater than 100 µM. Moreover, the selectivity ratio in series [3] is greater than 153.

On to `CN(/N=C/c1ccc(OP2(Oc3ccc(/C=N/N(C)P(=S)(Oc4ccc(C(O)P(=O)(O)O)cc4)Oc4ccc(C(O)P(=O)(O)O)cc4)cc3)=NP(Oc3ccc(/C=N/N(C)P(=S)(Oc4ccc(C(O)P(=O)(O)O)cc4)Oc4ccc(C(O)P(=O)(O)O)cc4)cc3)(Oc3ccc(/C=N/N(C)P(=S)(Oc4ccc(C(O)P(=O)(O)O)cc4)Oc4ccc(C(O)P(=O)(O)O)cc4)cc3)=NP(Oc3ccc(/C=N/N(C)P(=S)(Oc4ccc(C(O)P(=O)(O)O)cc4)Oc4ccc(C(O)P(=O)(O)O)cc4)cc3)(Oc3ccc(/C=N/N(C)P(=S)(Oc4ccc(C(O)P(=O)(O)O)cc4)Oc4ccc(C(O)P(=O)(O)O)cc4)cc3)=N2)cc1)P(=S)(Oc1ccc(C(O)P(=O)(O)O)cc1)Oc1ccc(C(O)P(=O)(O)O)cc1` (centres undefined), for which, in series [1], the IC50 stood at 50 µM. Moreover, the CC50 at 120 h in series [2] was greater than 100 µM. Moreover, the selectivity ratio in series [3] was greater than 2.

Take `CN(/N=C/c1ccc(OP2(Oc3ccc(/C=N/N(c4ccc(CCN(CP(=O)(O)O)CP(=O)(O)O)cc4)P(O)(=S)Oc4ccc(CCN(CP(=O)(O)O)CP(=O)(O)O)cc4)cc3)=NP(Oc3ccc(/C=N/N(C)P(=S)(Oc4ccc(CCN(CP(=O)(O)O)CP(=O)(O)O)cc4)Oc4ccc(CCN(CP(=O)(O)O)CP(=O)(O)O)cc4)cc3)(Oc3ccc(/C=N/N(C)P(=S)(Oc4ccc(CCN(CP(=O)(O)O)CP(=O)(O)O)cc4)Oc4cccc(CCN(CP(=O)(O)O)CP(=O)(O)O)c4)cc3)=NP(Oc3ccc(/C=N/N(C)P(=S)(Oc4ccc(CCN(CP(=O)(O)O)CP(=O)(O)O)cc4)Oc4ccc(CCN(CP(=O)(O)O)CP(=O)(O)O)cc4)cc3)(Oc3ccc(/C=N/N(C)P(=S)(Oc4ccc(CCN(CP(=O)(O)O)CP(=O)(O)O)cc4)Oc4ccc(CCN(CP(=O)(O)O)CP(=O)(O)O)cc4)cc3)=N2)cc1)P(=S)(Oc1ccc(CCN(CP(=O)(O)O)CP(=O)(O)O)cc1)Oc1ccc(CCN(CP(=O)(O)O)CP(=O)(O)O)cc1` (centres undefined): the concentration for half-maximal inhibition (IC50) in series [1] was 20 µM. The cytotoxic concentration (CC50) at 120 h in series [2] was greater than 100 µM. Further, the selectivity ratio in series [3] is greater than 5.

On to `CN(/N=C/c1ccc(OP2(Oc3ccc(/C=N/N(C)P(=S)(Oc4ccc(CCNC(=O)CP(=O)(O)O)cc4)Oc4ccc(CCNC(=O)CP(=O)(O)O)cc4)cc3)=NP(Oc3ccc(/C=N/N(C)P(=S)(Oc4ccc(CCNC(=O)CP(=O)(O)O)cc4)Oc4ccc(CCNC(=O)CP(=O)(O)O)cc4)cc3)(Oc3ccc(/C=N/N(C)P(=S)(Oc4ccc(CCNC(=O)CP(=O)(O)O)cc4)Oc4ccc(CCNC(=O)CP(=O)(O)O)cc4)cc3)=NP(Oc3ccc(/C=N/N(C)P(=S)(Oc4ccc(CCNC(=O)CP(=O)(O)O)cc4)Oc4ccc(CCNC(=O)CP(=O)(O)O)cc4)cc3)(Oc3ccc(/C=N/N(C)P(=S)(Oc4ccc(CCNC(=O)CP(=O)(O)O)cc4)Oc4ccc(CCNC(=O)CP(=O)(O)O)cc4)cc3)=N2)cc1)P(=S)(Oc1ccc(CCNC(=O)CP(=O)(O)O)cc1)Oc1ccc(CCNC(=O)CP(=O)(O)O)cc1`, for which the half-maximal inhibitory concentration (IC50) in series [1] is 25 µM. In series [2], the cytotoxic concentration (CC50) at 120 h was greater than 100 µM. The selectivity ratio in series [3] was greater than 4.

Regarding `CCCC(C(=O)NCCc1ccc(OP(=S)(Oc2ccc(CCNC(=O)C(CCC)P(=O)(O)O)cc2)N(C)/N=C/c2ccc(OP3(Oc4ccc(/C=N/N(C)P(=S)(Oc5ccc(CCNC(=O)C(CCC)P(=O)(O)O)cc5)Oc5ccc(CCNC(=O)C(CCC)P(=O)(O)O)cc5)cc4)=NP(Oc4ccc(/C=N/N(C)P(=S)(Oc5ccc(CCNC(=O)C(CCC)P(=O)(O)O)cc5)Oc5ccc(CCNC(=O)C(CCC)P(=O)(O)O)cc5)cc4)(Oc4ccc(/C=N/N(C)P(=S)(Oc5ccc(CCNC(=O)C(CCC)P(=O)(O)O)cc5)Oc5ccc(CCNC(=O)C(CCC)P(=O)(O)O)cc5)cc4)=NP(Oc4ccc(/C=N/N(C)P(=S)(Oc5ccc(CCNC(=O)C(CCC)P(=O)(O)O)cc5)Oc5ccc(CCNC(=O)C(CCC)P(=O)(O)O)cc5)cc4)(Oc4ccc(/C=N/N(C)P(=S)(Oc5ccc(CCNC(=O)C(CCC)P(=O)(O)O)cc5)Oc5ccc(CCNC(=O)C(CCC)P(=O)(O)O)cc5)cc4)=N3)cc2)cc1)P(=O)(O)O` (centres undefined), the IC50 in series [1] was determined as 1.5 µM. In series [2], this molecule yielded a CC50 at 120 h greater than 100 µM. Further, the selectivity ratio in series [3] is greater than 67.

Take `CCCC(C(=O)NCCc1ccc(OP(=S)(Oc2ccc(CCNC(=O)C(CCC)P(=O)(O)O)cc2)N(C)/N=C/c2ccc(OP3(Oc4ccc(/C=N/N(C)P(=S)(Oc5ccc(CCNC(=O)C(CCC)P(=O)(O)O)cc5)Oc5ccc(CCNC(=O)C(CCC)P(=O)(O)O)cc5)cc4)=NP(Oc4ccc(/C=N/N(C)P(=S)(Oc5ccc(CCNC(=O)C(CCC)P(=O)(O)O)cc5)Oc5ccc(CCNC(=O)C(CCC)P(=O)(O)O)cc5)cc4)(Oc4ccc(/C=N/N(C)P(=S)(Oc5ccc(CCNC(=O)C(CCC)P(=O)(O)O)cc5)Oc5ccc(CCNC(=O)C(CCC)P(=O)(O)O)cc5)cc4)=NP(Oc4ccc(/C=N/N(C)P(=S)(Oc5ccc(CCNC(=O)C(CCC)P(=O)(O)O)cc5)Oc5ccc(CCNC(=O)C(CCC)P(=O)(O)O)cc5)cc4)(Oc4ccc(/C=N/N(C)P(=S)(Oc5ccc(CCNC(=O)C(CCC)P(=O)(O)O)cc5)Oc5ccc(CCNC(=O)C(CCC)P(=O)(O)O)cc5)cc4)=N3)cc2)cc1)P(=O)(O)O.CCCCCCCCCCCCCCCCNOC(CO)C(O)C(OC1OC(CO)C(O)C(O)C1O)C(O)CO.CCCCCCCCCCCCCCCCNOC(CO)C(O)C(OC1OC(CO)C(O)C(O)C1O)C(O)CO.CCCCCCCCCCCCCCCCNOC(CO)C(O)C(OC1OC(CO)C(O)C(O)C1O)C(O)CO.CCCCCCCCCCCCCCCCNOC(CO)C(O)C(OC1OC(CO)C(O)C(O)C1O)C(O)CO.CCCCCCCCCCCCCCCCNOC(CO)C(O)C(OC1OC(CO)C(O)C(O)C1O)C(O)CO.CCCCCCCCCCCCCCCCNOC(CO)C(O)C(OC1OC(CO)C(O)C(O)C1O)C(O)CO` (centres undefined): the half-maximal inhibitory concentration (IC50) in series [1] turned out to be 0.33 µM. Moreover, the midpoint of cytotoxicity in series [2], the CC50 at 120 h, lay at 1.5 µM. Further, in series [3], the selectivity ratio turned out to be 4.5.

`CCCCCCCCCCCCCCCCNOC(CO)C(O)C(OC1OC(CO)C(O)C(O)C1O)C(O)CO.CCCCCCCCCCCCCCCCNOC(CO)C(O)C(OC1OC(CO)C(O)C(O)C1O)C(O)CO.CCCCCCCCCCCCCCCCNOC(CO)C(O)C(OC1OC(CO)C(O)C(O)C1O)C(O)CO.CCCCCCCCCCCCCCCCNOC(CO)C(O)C(OC1OC(CO)C(O)C(O)C1O)C(O)CO.CCCCCCCCCCCCCCCCNOC(CO)C(O)C(OC1OC(CO)C(O)C(O)C1O)C(O)CO.CCCCCCCCCCCCCCCCNOC(CO)C(O)C(OC1OC(CO)C(O)C(O)C1O)C(O)CO.CN(/N=C/c1ccc(OP2(Oc3ccc(/C=N/N(C)P(=S)(Oc4ccc(CCNC(=O)CP(=O)(O)O)cc4)Oc4ccc(CCNC(=O)CP(=O)(O)O)cc4)cc3)=NP(Oc3ccc(/C=N/N(C)P(=S)(Oc4ccc(CCNC(=O)CP(=O)(O)O)cc4)Oc4ccc(CCNC(=O)CP(=O)(O)O)cc4)cc3)(Oc3ccc(/C=N/N(C)P(=S)(Oc4ccc(CCNC(=O)CP(=O)(O)O)cc4)Oc4ccc(CCNC(=O)CP(=O)(O)O)cc4)cc3)=NP(Oc3ccc(/C=N/N(C)P(=S)(Oc4ccc(CCNC(=O)CP(=O)(O)O)cc4)Oc4ccc(CCNC(=O)CP(=O)(O)O)cc4)cc3)(Oc3ccc(/C=N/N(C)P(=S)(Oc4ccc(CCNC(=O)CP(=O)(O)O)cc4)Oc4ccc(CCNC(=O)CP(=O)(O)O)cc4)cc3)=N2)cc1)P(=S)(Oc1ccc(CCNC(=O)CP(=O)(O)O)cc1)Oc1ccc(CCNC(=O)CP(=O)(O)O)cc1`: in series [1], the concentration for half-maximal inhibition (IC50) stood at 0.4 µM. In series [2], this molecule returned a half-maximal cytotoxic concentration (CC50) at 120 h of 1.9 µM. Besides, the selectivity ratio in series [3] was determined as 4.8.
